Counter-ions that a name gives are not always drawn.
Molecular target: T1, Recombinant NAMPT protein (Homo sapiens, UniProt P43490)
T1 construct: purchased BPS bioscience # 7176-1
Test: NAMPT enzyme inhibition assay (BPS bioscience NAMPT Inhibitor Screening Assay Kit, fluorescence)
Format: biochemical
Details: 30 min pre-incubation, 2 h at 30°C, compound 1000 nM to 3 nM, n=2
Experimental: The NAMPT enzyme activity inhibition ability of the compound of the present invention was evaluated using the NAMPT Inhibitor Screening Assay Kit (# 7176-1) from BPS bioscience. Recombinant NAMPT protein was added to each well of a black 96-well plate, and dilution buffer was added to a blank well instead of NAMPT protein. A 5 x concentrated compound solution was added and pre-incubated at room temperature (approximately 22°C) for 30 minutes before the start of the reaction so that the compound and protein might bind before the enzyme reaction. At this time, the concentration of NAMPT protein was adjusted and used according to the enzyme activity of each protein lot within the final concentration range of 4-10 ng/µl, and the test compound was serially diluted at a ratio of 1:3 from 1000 nM to 3 nM, and experiments were conducted with n=2 for about seven concentrations. A 2 x concentrated test buffer containing ATP (final concentration of 20 µM), nicotinamide (final concentration of 20 µM), phosphoribosyl pyrophosphate (PRPP, final concentration of 40 µM), and ethanol (final concentration of 1.5%) was added, and the plate was incubated at 30°C for two hours, after which the fluorescence of a resulting reaction product was measured with excitation of 340 nm and emission of 460 nm. The NAMPT enzyme activity (%) was calculated by subtracting the measurement value of the blank well without NAMPT protein from the measurement value of all wells, and then taking the measurement value of the control well without the compound as 100%.

T1 sequence (P43490 whole entry): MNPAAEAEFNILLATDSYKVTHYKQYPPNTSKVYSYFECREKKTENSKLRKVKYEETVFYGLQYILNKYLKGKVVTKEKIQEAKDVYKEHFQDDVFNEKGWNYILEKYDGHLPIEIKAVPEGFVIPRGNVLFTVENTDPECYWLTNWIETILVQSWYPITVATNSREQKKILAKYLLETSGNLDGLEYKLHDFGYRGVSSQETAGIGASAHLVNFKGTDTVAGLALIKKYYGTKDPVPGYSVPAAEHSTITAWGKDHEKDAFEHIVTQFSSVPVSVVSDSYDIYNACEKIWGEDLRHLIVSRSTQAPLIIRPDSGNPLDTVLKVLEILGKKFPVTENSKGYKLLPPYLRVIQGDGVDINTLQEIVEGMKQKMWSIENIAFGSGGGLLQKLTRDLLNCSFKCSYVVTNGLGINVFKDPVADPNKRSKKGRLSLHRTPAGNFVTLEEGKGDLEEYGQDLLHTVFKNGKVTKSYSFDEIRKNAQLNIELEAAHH

Q: How did the IC50 turn out when `Cn1ccc(CS(=O)(=O)c2ccc(C(=O)NCCCc3cn[nH]c3)cc2C#Cc2ccc(OC(F)(F)F)cc2)n1` [compound 236, N-(3-(1H-pyrazol-4-yl)propyl)-4-(((1-methyl-1H-pyrazol-3-yl)methyl)sulfonyl)-3-((4-(trifluoromethoxy)phenyl)ethynyl)benzamide] was run?
A: Its IC50 is at least 1000 nM.

Q: Which IC50 does the source give for `Cn1ccc(CS(=O)(=O)c2ccc(C(=O)NCc3ccn4ccnc4c3)cc2C#Cc2ccc3c(c2)CCNC3)n1` [compound 231, N-(imidazo[1,2-a]pyridin-7-ylmethyl)-4-(((1-methyl-1H-pyrazol-3-yl)methyl)sulfonyl)-3-((1,2,3,4-tetrahydroisoquinolin-6-yl)ethynyl)benzamide] here?
A: The IC50 was under 500 nM.

Q: For `Cc1cccc(CS(=O)(=O)c2ccc(C(=O)NCCCc3cn[nH]c3)cc2C#Cc2ccc(F)cc2)c1C` [compound 5, N-(3-(1H-pyrazol-4-yl)propyl)-4-((2,3-dimethylbenzyl)sulfonyl)-3-((4-fluorophenyl)ethynyl)benzamide], which IC50 is on record?
A: The IC50 was at least 1000 nM.

Q: Which IC50 does the source give for `CNS(=O)(=O)c1ccc(C(=O)NCCCc2cn[nH]c2)cc1C#Cc1ccc(F)cc1` [compound 6, N-(3-(1H-pyrazol-4-yl)propyl)-3-((4-fluorophenyl)ethynyl)-4-(N-methylsulfamoyl)benzamide] here?
A: Its IC50 is at least 1000 nM.

Q: Which IC50 does the source give for `Nc1cccc(CS(=O)(=O)c2ccc(C(=O)NCc3ccn4ccnc4c3)cc2C#Cc2ccc(F)cc2)c1` [compound 147] here?
A: The IC50 was under 500 nM.

Q: How did the IC50 turn out when `CN(C)c1ccc(C#Cc2cc(C(=O)NCCCc3cn[nH]c3)ccc2S(=O)(=O)Cc2ccn(C)n2)cc1` [compound 244, N-(3-(1H-pyrazol-4-yl)propyl)-3-((4-(dimethylamino)phenyl)ethynyl)-4-(((1-methyl-1H-pyrazol-3-yl)methyl)sulfonyl)benzamide] was run?
A: The IC50 was at least 1000 nM.

Q: `Cn1ccc(CS(=O)(=O)c2ccc(C(=O)NCc3cnc4nccn4c3)cc2C#Cc2ccc(F)cc2)n1` [compound 238, 3-((4-fluorophenyl)ethynyl)-N-(imidazo[1,2-a]pyrimidin-6-ylmethyl)-4-(((1-methyl-1H-pyrazol-3-yl)methyl)sulfonyl)benzamide] was tested. Which IC50 did it give?
A: The IC50 was under 500 nM.

Q: How did the IC50 turn out when `Cn1ccc(CS(=O)(=O)c2ccc(C(=O)NCCc3ccc([N+](=O)[O-])nc3)cc2C#Cc2ccc(F)cc2)n1` [compound 7, 3-((4-fluorophenyl)ethynyl)-4-(((1-methyl-1H-pyrazol-3-yl)methyl)sulfonyl)-N-(2-(6-nitropyridin-3-yl)ethyl)benzamide] was run?
A: The IC50 was at least 1000 nM.

Q: How did the IC50 turn out when `O=C(NCCCc1cn[nH]c1)c1ccc(S(=O)(=O)Cc2cccc(C(F)(F)F)c2)c(C#Cc2ccc(F)cc2)c1` [compound 9, N-(3-(1H-pyrazol-4-yl)propyl)-3-((4-fluorophenyl)ethynyl)-4-((3-(trifluoromethyl)benzyl)sulfonyl)benzamide] was run?
A: The IC50 was 500 to 1000 nM.

Q: With `Cn1ccc(CS(=O)(=O)c2ccc(C(=O)NCCc3ccc(N)nc3)cc2C#Cc2ccc(F)cc2)n1` [compound 8, N-(2-(6-aminopyridin-3-yl)ethyl)-3-((4-fluorophenyl)ethynyl)-4-(((1-methyl-1H-pyrazol-3-yl)methyl)sulfonyl)benzamide] as the compound, how does the IC50 read?
A: Its IC50 is at least 1000 nM.

Q: How did the IC50 turn out when `Cn1ccc(CS(=O)(=O)c2ccc(C(=O)NCc3ccn4ccnc4c3)cc2C#Cc2ccc(C(=O)NCCN3CCCCC3)cc2)n1` [compound 242, N-(imidazo[1,2-a]pyridin-7-ylmethyl)-4-(((1-methyl-1H-pyrazol-3-yl)methyl)sulfonyl)-3-((4-((2-(piperidin-1-yl)ethyl)carbamoyl)phenyl)ethynyl)benzamide] was run?
A: Its IC50 is 500 to 1000 nM.

Q: `O=C(NCc1ccn2ccnc2c1)c1ccc(S(=O)(=O)Cc2cc[nH]n2)c(C#Cc2ccc(F)cc2)c1` [compound 234, 4-(((1H-pyrazol-3-yl)methyl)sulfonyl)-3-((4-fluorophenyl)ethynyl)-N-(imidazo[1,2-a]pyridin-7-ylmethyl)benzamide] was tested. Which IC50 did it give?
A: The IC50 was under 500 nM.

Q: How did the IC50 turn out when `Cn1ccc(CS(=O)(=O)c2ccc(C(=O)NCCc3c[nH]c4ccncc34)cc2C#Cc2ccc(F)cc2)n1` [compound 3, N-(2-(1H-pyrrolo[3,2-c]pyridin-3-yl)ethyl)-3-((4-fluorophenyl)ethynyl)-4-(((1-methyl-1H-pyrazol-3-yl)methyl)sulfonyl)benzamide] was run?
A: Its IC50 is under 500 nM.

Q: `Cn1ccc(CS(=O)(=O)c2ccc(C(=O)NCc3ccn4ccnc4c3)cc2C#Cc2ccc(N)c(F)c2)n1` [compound 241, 3-((4-amino-3-fluorophenyl)ethynyl)-N-(imidazo[1,2-a]pyridin-7-ylmethyl)-4-(((1-methyl-1H-pyrazol-3-yl)methyl)sulfonyl)benzamide] was tested. Which IC50 did it give?
A: Its IC50 is under 500 nM.

Q: Which IC50 does the source give for `Nc1ccc(-n2ccc(CS(=O)(=O)c3ccc(C(=O)NCc4ccn5ccnc5c4)cc3C#Cc3ccc(F)cc3)n2)cc1` [compound 233, 4-(((1-(4-aminophenyl)-1H-pyrazol-3-yl)methyl)sulfonyl)-3-((4-fluorophenyl)ethynyl)-N-(imidazo[1,2-a]pyridin-7-ylmethyl)benzamide] here?
A: Its IC50 is under 500 nM.

Q: `O=C(NCCCc1cn[nH]c1)c1ccc(S(=O)(=O)Cc2ccn(-c3ccc(C(F)(F)F)cc3)n2)c(C#Cc2ccc(F)cc2)c1` [compound 4, N-(3-(1H-pyrazol-4-yl)propyl)-3-((4-fluorophenyl)ethynyl)-4-(((1-(4-(trifluoromethyl)phenyl)-1H-pyrazol-3-yl)methyl)sulfonyl)benzamide] was tested. Which IC50 did it give?
A: The IC50 was 500 to 1000 nM.

Q: With `Cn1ccc(CS(=O)(=O)c2ccc(C(=O)NCCCc3cn[nH]c3)cc2C#Cc2ccncc2)n1` [compound 237, N-(3-(1H-pyrazol-4-yl)propyl)-4-(((1-methyl-1H-pyrazol-3-yl)methyl)sulfonyl)-3-(pyridin-4-ylethynyl)benzamide] as the compound, how does the IC50 read?
A: Its IC50 is under 500 nM.

Q: For `O=C(NCc1ccn2ccnc2c1)c1ccc(S(=O)(=O)Cc2ccn(C3CCNCC3)n2)c(C#Cc2ccc(F)cc2)c1` [compound 122, 3-((4-fluorophenyl)ethynyl)-N-(imidazo[1,2-a]pyridin-7-ylmethyl)-4-(((1-(piperidin-4-yl)-1H-pyrazol-3-yl)methyl)sulfonyl)benzamide], which IC50 is on record?
A: Its IC50 is at least 1000 nM.

Q: With `Cn1ccc(CS(=O)(=O)c2ccc(C(=O)NCc3ccn4ccnc4c3)cc2C#Cc2ccc(C(=O)NCCN3CCNCC3)cc2)n1` [compound 193, N-(imidazo[1,2-a]pyridin-7-ylmethyl)-4-(((1-methyl-1H-pyrazol-3-yl)methyl)sulfonyl)-3-((4-((2-(piperazin-1-yl)ethyl)carbamoyl)phenyl)ethynyl)benzamide] as the compound, how does the IC50 read?
A: The IC50 was at least 1000 nM.

Q: `Cn1ccc(CS(=O)(=O)c2ccc(C(=O)NCCCc3cn[nH]c3)cc2C#Cc2ccc(C3CCNCC3)cc2)n1` [compound 245, N-(3-(1H-pyrazol-4-yl)propyl)-4-(((1-methyl-1H-pyrazol-3-yl)methyl)sulfonyl)-3-((4-(piperidin-4-yl)phenyl)ethynyl)benzamide hydrochloride] was tested. Which IC50 did it give?
A: Its IC50 is under 500 nM.

Q: Which IC50 does the source give for `Cn1ccc(CS(=O)(=O)c2ccc(C(=O)NCc3ccn4ccnc4c3)cc2C#Cc2ccc(N)nc2)n1` [compound 243, 3-((6-aminopyridin-3-yl)ethynyl)-N-(imidazo[1,2-a]pyridin-7-ylmethyl)-4-(((1-methyl-1H-pyrazol-3-yl)methyl)sulfonyl)benzamide] here?
A: Its IC50 is under 500 nM.

Q: For `Nc1ccc(CS(=O)(=O)c2ccc(C(=O)NCc3ccn4ccnc4c3)cc2C#Cc2ccc(F)cc2)cc1` [compound 148, 4-((4-aminobenzyl)sulfonyl)-3-((4-fluorophenyl)ethynyl)-N-(imidazo[1,2-a]pyridin-7-ylmethyl)benzamide], which IC50 is on record?
A: Its IC50 is under 500 nM.

Q: Which IC50 does the source give for `COc1cc(C#Cc2cc(C(=O)NCCCc3cn[nH]c3)ccc2S(=O)(=O)Cc2ccn(C)n2)ccc1C` [compound 235, N-(3-(1H-pyrazol-4-yl)propyl)-3-((3-methoxy-4-methylphenyl)ethynyl)-4-(((1-methyl-1H-pyrazol-3-yl)methyl)sulfonyl)benzamide] here?
A: Its IC50 is under 500 nM.

Q: `Cn1ccc(CS(=O)(=O)c2ccc(C(=O)NCc3ccc4nccn4c3)cc2C#Cc2ccc(N)cc2)n1` [compound 240, 3-((4-aminophenyl)ethynyl)-N-(imidazo[1,2-a]pyridin-6-ylmethyl)-4-(((1-methyl-1H-pyrazol-3-yl)methyl)sulfonyl)benzamide] was tested. Which IC50 did it give?
A: The IC50 was under 500 nM.

Q: `Cn1ccc(CNS(=O)(=O)c2ccc(C(=O)NCc3ccn4ccnc4c3)cc2C#Cc2ccc(F)cc2)n1` [compound 115, 3-((4-fluorophenyl)ethynyl)-N-(imidazo[1,2-a]pyridin-7-ylmethyl)-4-(N-((1-methyl-1H-pyrazol-3-yl)methyl)sulfamoyl)benzamide] was tested. Which IC50 did it give?
A: Its IC50 is under 500 nM.

Test system: HCT116 colorectal cancer cell lines
Test: Tumor cytotoxicity assay (MTT)
Format: cell-based
Details: Homo sapiens, HCT-116, HCT116 cells, 72 hours treatment, 0.1 nM to 1000 nM
Experimental: The anticancer efficacy of the compound of the present invention was evaluated using the MTT analysis method in HCT116 colorectal cancer cell lines. The cells were incubated using DMEM medium containing 10% FBS. The cells were distributed in a 96-well plate at a density of 2,500 cells per well, the HCT116 cells were incubated for 24 hours, and then treated with a drug using a serum free DMEM. First, a compound was prepared in 100% dimethyl sulfoxide (DMSO) at a concentration of 0.02 µM to 200 µM, diluted in the culture medium so that the final concentration of DMSO might reach 0.5%, and treated with the drug so that the final concentration of the compound might range from 0.1 nM to 1000 nM. After that, they were further incubated for 72 hours at 37°C and CO2 5% and treated with MTT (Sigma-Aldrich, M2128) to confirm cytotoxicity. Formazan produced from reduction by enzymes in the mitochondria of living cells was measured using Spark® Multimode Microplate Reader TECAN equipment. A cell viability (%) was relatively determined by subtracting a reference 650 nm optical density (O.D.) from 570 nm O.D., in which the 0.5% DMSO-treated control was set as a standard of 100%. […]

Q: With `Cn1ccc(CS(=O)(=O)c2ccc(C(=O)NCc3cnc4nccn4c3)cc2C#Cc2ccc(F)cc2)n1` [compound 238, 3-((4-fluorophenyl)ethynyl)-N-(imidazo[1,2-a]pyrimidin-6-ylmethyl)-4-(((1-methyl-1H-pyrazol-3-yl)methyl)sulfonyl)benzamide] as the compound, how does the CC50 read?
A: Its CC50 is 100 to 1000 nM.

Q: Which CC50 does the source give for `O=C(NCc1ccn2ccnc2c1)c1ccc(S(=O)(=O)Cc2cc[nH]n2)c(C#Cc2ccc(F)cc2)c1` [compound 234, 4-(((1H-pyrazol-3-yl)methyl)sulfonyl)-3-((4-fluorophenyl)ethynyl)-N-(imidazo[1,2-a]pyridin-7-ylmethyl)benzamide] here?
A: The CC50 was at most 30 nM.

Q: How did the CC50 turn out when `Cn1ccc(CS(=O)(=O)c2ccc(C(=O)NCc3ccn4ccnc4c3)cc2C#Cc2ccc(N)c(F)c2)n1` [compound 241, 3-((4-amino-3-fluorophenyl)ethynyl)-N-(imidazo[1,2-a]pyridin-7-ylmethyl)-4-(((1-methyl-1H-pyrazol-3-yl)methyl)sulfonyl)benzamide] was run?
A: The CC50 was at most 30 nM.

Q: `Nc1ccc(CS(=O)(=O)c2ccc(C(=O)NCc3ccn4ccnc4c3)cc2C#Cc2ccc(F)cc2)cc1` [compound 148, 4-((4-aminobenzyl)sulfonyl)-3-((4-fluorophenyl)ethynyl)-N-(imidazo[1,2-a]pyridin-7-ylmethyl)benzamide] was tested. Which CC50 did it give?
A: Its CC50 is 100 to 1000 nM.

Source: EP4722208A1, “NOVEL BENZAMIDE DERIVATIVE COMPOUND AND PHARMACEUTICAL COMPOSITION COMPRISING SAME” (Samjin Pharmaceutical Co., Ltd., priority 2023, dated 2024)
